According to US11401255B2, “Small molecule activators of Parkin enzyme function” (Mayo Foundation for Medical Education and Research, priority 2016, dated 2022):

Molecular target: Parkin (Homo sapiens (Human), UniProt O60260)
Assay: Thermal shift (protein melting) assay
Assay type: binding
Details: 500 nM compound, 50 ng purified Parkin, SYPRO orange
Description: FIGS. 15A-15H show Parkin activation in primary fibroblasts, neuronal cells and in vitro. Positive control (PC) cells were treated with DMSO and 10 μM of CCCP. Negative control (NC) cells were treated with 3.5 μM CCCP, some cells were left untreated (−). […] Vinculin was used as loading control. […] FIG. 15C: Human fibroblasts were directly converted to neurons and treated as in FIG. 15B. […] Beta III tubulin confirmed successful conversion of fibroblasts to iNeurons. FIG. 15D: Rat PC12 cells were treated as in FIG. 15A. Western blots show enhanced ubiquitylation of MFN2 and TOM70, and robust pSer65-Ub induction similar to PC, but not NC cells. FIG. 15E: In vitro E2 discharge assay. Recombinant Parkin was pre-incubated with compound 4 or DMSO as control and was mixed to Ub-loaded UbcH7. […] Control reactions were performed without PINK1 or Parkin. FIG. 15F: In vitro assay with isolated mitochondria from untreated or CCCP-treated HeLa cells lacking Parkin. […]
To validate direct binding of activating compounds to Parkin as predicted from the in silico approach, a thermofluor shift assay was used. Recombinant purified Parkin was mixed together with compound 4 or DMSO as a control and the melting temperature was monitored using SYPRO Orange dye.
The thermal shift assay was performed as follows. […] Data was exported and analyzed using the Protein Melting Analysis tool (Roche Applied Science).

Sequence of Parkin (O60260 whole entry): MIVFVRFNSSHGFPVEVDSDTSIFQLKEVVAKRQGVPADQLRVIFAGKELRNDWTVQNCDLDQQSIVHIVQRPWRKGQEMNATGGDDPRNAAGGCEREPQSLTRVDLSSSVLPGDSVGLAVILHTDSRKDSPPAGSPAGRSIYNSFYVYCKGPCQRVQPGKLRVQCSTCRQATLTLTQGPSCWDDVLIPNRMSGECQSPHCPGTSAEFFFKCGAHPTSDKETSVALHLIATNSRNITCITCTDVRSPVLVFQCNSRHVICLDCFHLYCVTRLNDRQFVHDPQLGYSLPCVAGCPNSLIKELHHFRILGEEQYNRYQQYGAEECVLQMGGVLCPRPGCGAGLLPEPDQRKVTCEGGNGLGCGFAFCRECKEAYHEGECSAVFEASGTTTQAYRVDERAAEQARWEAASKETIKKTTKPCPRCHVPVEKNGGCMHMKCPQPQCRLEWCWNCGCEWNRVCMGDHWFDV

Structure (SMILES): O=C(Cn1ccnc1-c1ccccn1)Nc1ccc(-c2ccccc2)cc1 [Compound 4]
- Parkin melting temperature shift: 3 °C
